Measurements as given in patent US20250134887A1, “METHODS OF TREATING PROSTATE CANCER” (AstraZeneca AB, priority 2022, published 2025).

Experiments:
[1] = tested on: patients with progressive mCRPC who had not received chemotherapy; details: COU-AA-302; cited from earlier work
patients with mCRPC = test: PROpel phase III trial: safety, adverse events (CTCAE v.4.03); format: in vivo, human
Method: Trial design and interventions. This was a double-blind, placebo-controlled, phase Ill trial. Eligible patients were randomized (1:1) to treatment with abiraterone acetate (1000 mg once daily) in combination with either olaparib (300 mg twice daily) or placebo. All patients received prednisone or prednisolone (5 mg twice daily) as per the abiraterone acetate label requirement. Randomization was stratified by distant metastasis type (bone only/visceral/other) at baseline and by docetaxel treatment at the mHSPC stage of disease (yes or no). Study treatment continued until objective imaging-based progressive disease assessed by investigator (using Response Evaluation Criteria in Solid Tumors [RECIST 1.1] for soft tissue lesions and Prostate Cancer Working Group-3 [PCWG-3] criteria for bone lesions), unacceptable toxicity, or withdrawal of consent. Following objective disease progression, further treatment options were at the discretion of the investigator. Patients could continue study treatment if the investigator believed, that the patient could continue to receive clinical benefit, was not experiencing serious toxicity and there was no available better alternative treatment. Crossover from placebo to receive olaparib in combination with abiraterone acetate was not allowed.
Safety was assessed through reporting of adverse events and serious adverse events (according to Common Terminology Criteria for Adverse Events v.4.03) based on physical examination findings, vital signs, ECG findings and laboratory test results.
Statistical analysis. Efficacy was analyzed for the intention-to-treat population and safety was analyzed for all patients who received any amount of abiraterone acetate, olaparib, or placebo. Patients who received at least one dose of olaparib were included in the abiraterone acetate and olaparib arm.

[2] = male, human, in vivo, 15.7 months

In the case of CC(=O)O[C@H]1CC[C@@]2(C)C(=CC[C@@H]3[C@@H]2CC[C@]2(C)C(c4cccnc4)=CC[C@@H]32)C1 [abiraterone acetate and placebo, (3β)-17-(3-pyridinyl) androsta-5,16-dien-3-yl acetate], the “median radiographic progression-free survival” value [1] is listed as 16.5 months, the “Anemia, % of patients” value (patients with mCRPC; All Grades) is listed as “(16.4) %” and the “Anemia, number of patients” value (patients with mCRPC; All Grades) is listed as 65. The “Any adverse event, % of patients” value (patients with mCRPC; All Grades) was “(94.9) %”, the “Any adverse event, number of patients” value (patients with mCRPC; All Grades) was 376 and the “Arthralgia, % of patients” value (patients with mCRPC; All Grades) was “(17.7) %”. For the same molecule, the “Arthralgia, number of patients” value (patients with mCRPC; All Grades) was 70, the “Back pain, % of patients” value (patients with mCRPC; All Grades) was “(18.4) %” and the “Back pain, number of patients” value (patients with mCRPC; All Grades) was 73. For the same molecule, the “Cardiac failure adverse events, % of patients” value (patients with mCRPC; All Grades) was “(1.3) %”, the “Cardiac failure adverse events, number of patients” value (patients with mCRPC; All Grades) was 5 and the “Constipation, % of patients” value (patients with mCRPC; All Grades) was “(13.9) %”. The “Constipation, number of patients” value (patients with mCRPC; All Grades) was 55, the “Decreased appetite, % of patients” value (patients with mCRPC; All Grades) was “(5.8) %” and the “Decreased appetite, number of patients” value (patients with mCRPC; All Grades) was 23. The “Diarrhea, % of patients” value (patients with mCRPC; All Grades) was “(9.3) %”, the “Diarrhea, number of patients” value (patients with mCRPC; All Grades) was 37 and the “Dizziness, % of patients” value (patients with mCRPC; All Grades) was “(6.3) %”. For the same molecule, the “Dizziness, number of patients” value (patients with mCRPC; All Grades) was 25, the “Embolic and thrombotic arterial adverse events, % of patients” value (patients with mCRPC; All Grades) was “(2.5) %” and the “Embolic and thrombotic arterial adverse events, number of patients” value (patients with mCRPC; All Grades) was 10. For the same molecule, the “Fatigue or asthenia, % of patients” value (patients with mCRPC; All Grades) was “(28.3) %”, the “Fatigue or asthenia, number of patients” value (patients with mCRPC; All Grades) was 112 and the “Hypertension, % of patients” value (patients with mCRPC; All Grades) was “(16.4) %”. The “Hypertension, number of patients” value (patients with mCRPC; All Grades) was 65, the “Nausea, % of patients” value (patients with mCRPC; All Grades) was “(12.6) %” and the “Nausea, number of patients” value (patients with mCRPC; All Grades) was 50. For the same molecule, the “Peripheral edema, % of patients” value (patients with mCRPC; All Grades) was “(11.4) %”, the “Peripheral edema, number of patients” value (patients with mCRPC; All Grades) was 45 and the “Urinary tract infection, % of patients” value (patients with mCRPC; All Grades) was “(7.8) %”. The “Urinary tract infection, number of patients” value (patients with mCRPC; All Grades) was 31, the “Vomiting, % of patients” value (patients with mCRPC; All Grades) was “(9.1) %” and the “Vomiting, number of patients” value (patients with mCRPC; All Grades) was 36. For the same molecule, the “Anemia, % of patients” value (patients with mCRPC; Grade ≥ 3) was 3.3%, the “Anemia, number of patients” value (patients with mCRPC; Grade ≥ 3) was 13 and the “Any adverse event, % of patients” value (patients with mCRPC; Grade ≥ 3) was “(38.4) %”. For the same molecule, the “Any adverse event, number of patients” value (patients with mCRPC; Grade ≥ 3) was 152, the “Arthralgia, % of patients” value (patients with mCRPC; Grade ≥ 3) was “(0.5) %” and the “Arthralgia, number of patients” value (patients with mCRPC; Grade ≥ 3) was 2. The “Back pain, % of patients” value (patients with mCRPC; Grade ≥ 3) was “(1.0) %”, the “Back pain, number of patients” value (patients with mCRPC; Grade ≥ 3) was 4 and the “COVID-19, % of patients” value (patients with mCRPC; Grade ≥ 3) was 2.0%. The “COVID-19, cases” value (patients with mCRPC; Grade ≥ 3) was 8, the “Constipation, % of patients” value (patients with mCRPC; Grade ≥ 3) was “(0.3) %” and the “Constipation, number of patients” value (patients with mCRPC; Grade ≥ 3) was 1. The “Decreased appetite, number of patients” value (patients with mCRPC; Grade ≥ 3) was 0, the “Diarrhea, % of patients” value (patients with mCRPC; Grade ≥ 3) was “(0.3) %” and the “Diarrhea, number of patients” value (patients with mCRPC; Grade ≥ 3) was 1. For the same molecule, the “Dizziness, number of patients” value (patients with mCRPC; Grade ≥ 3) was 0, the “Fatigue or asthenia, % of patients” value (patients with mCRPC; Grade ≥ 3) was “(1.5) %” and the “Fatigue or asthenia, number of patients” value (patients with mCRPC; Grade ≥ 3) was 6. The “Hypertension, % of patients” value (patients with mCRPC; Grade ≥ 3) was “(3.3) %”, the “Hypertension, number of patients” value (patients with mCRPC; Grade ≥ 3) was 13 and the “Nausea, % of patients” value (patients with mCRPC; Grade ≥ 3) was “(0.3) %”. For the same molecule, the “Nausea, number of patients” value (patients with mCRPC; Grade ≥ 3) was 1, the “Peripheral edema, % of patients” value (patients with mCRPC; Grade ≥ 3) was “(0.3) %” and the “Peripheral edema, number of patients” value (patients with mCRPC; Grade ≥ 3) was 1. The “Urinary tract infection, % of patients” value (patients with mCRPC; Grade ≥ 3) was “(1.0) %”, the “Urinary tract infection, number of patients” value (patients with mCRPC; Grade ≥ 3) was 4 and the “Vomiting, % of patients” value (patients with mCRPC; Grade ≥ 3) was “(0.3) %”. For the same molecule, the “Vomiting, number of patients” value (patients with mCRPC; Grade ≥ 3) was 1, the “Anemia, % of patients” value (patients with mCRPC; Grade ≥ 3, listed as Abiraterone and Placebo) was “(3.3) %” and the “COVID-19, % of patients” value (patients with mCRPC; all grades) was 4.5%. The “COVID-19, cases” value (patients with mCRPC; all grades) was 18, the “Any serious adverse event, % of patients” value (patients with mCRPC; human, in vivo, 15.7 months) was “(27.0) %” and the “Any serious adverse event, number of patients” value (patients with mCRPC; human, in vivo, 15.7 months) was 107. For the same molecule, the “Death due to an adverse event, % of patients” value (patients with mCRPC; human, in vivo, 15.7 months) was “(4.3) %”, the “Death due to an adverse event, number of patients” value (patients with mCRPC; human, in vivo, 15.7 months) was 17 and the “Discontinuation of abiraterone acetate due to an adverse event, % of patients” value (patients with mCRPC; human, in vivo, 15.7 months) was “(8.8) %”. For the same molecule, the “Discontinuation of abiraterone acetate due to an adverse event, number of patients” value (patients with mCRPC; human, in vivo, 15.7 months) was 35, the “Discontinuation of olaparib/placebo due to an adverse event, % of patients” value (patients with mCRPC; human, in vivo, 15.7 months) was “(7.8) %” and the “Discontinuation of olaparib/placebo due to an adverse event, number of patients” value (patients with mCRPC; human, in vivo, 15.7 months) was 31. The “Dose reduction of abiraterone acetate due to an adverse event, % of patients” value (patients with mCRPC; human, in vivo, 15.7 months) was “(4.3) %”, the “Dose reduction of abiraterone acetate due to an adverse event, number of patients” value (patients with mCRPC; human, in vivo, 15.7 months) was 17 and the “Dose reduction of olaparib/placebo due to an adverse event, % of patients” value (patients with mCRPC; human, in vivo, 15.7 months) was “(5.6) %”. The “Dose reduction of olaparib/placebo due to an adverse event, number of patients” value (patients with mCRPC; human, in vivo, 15.7 months) was 22, the “Interruption of abiraterone acetate because of an adverse event, % of patients” value (patients with mCRPC; human, in vivo, 15.7 months) was “(22.0) %” and the “Interruption of abiraterone acetate because of an adverse event, number of patients” value (patients with mCRPC; human, in vivo, 15.7 months) was 87. The “Interruption of olaparib/placebo because of an adverse event, % of patients” value (patients with mCRPC; human, in vivo, 15.7 months) was “(25.3) %”, the “Interruption of olaparib/placebo because of an adverse event, number of patients” value (patients with mCRPC; human, in vivo, 15.7 months) was 100 and the “Deep-vein thrombosis, patients” value (patients with mCRPC; in vivo) was “three”. The “pulmonary embolism, cases” value (patients with mCRPC; in vivo) was “seven”, the “Deep-vein thrombosis, % of patients” value (patients with mCRPC; [2]) was 0.8% and the “new primary cancers, % of patients” value (patients with mCRPC; [2]) was 2.5%. The “new primary cancers, reports” value (patients with mCRPC; [2]) was 10 and the “pulmonary embolism, % of patients” value (patients with mCRPC; [2]) was 1.8%.
